Results published in PMC12135063, “Pharmaceutical Analysis of Protein–Peptide Coformulations and the Influence of Polysorbates” (Molecular Pharmaceutics, 2025).
Values joined by “and” are separate entries in the source; they are usually repeats but may differ in a detail not shown here. Equal entries are not always repeated. Where two headings read alike, the source gives them in different places. One block for each molecule: values may come before it. *1 amine or outer side, *2 acyl side, *3 side chain or, on linkers, in order; H or OH if unused. Where a SMILES comes first, the peptide text is derived from it. Side-chain parts run from the residue outwards. [ ]: non-standard residue; d: D form. The star is where a group is joined. γGlu = O=C(O)[C@H](CCC(=O)[*:2])N[*:1]; αMeF = C[C@](N)(Cc1ccccc1)C(=O)O; αMeK = C[C@](N)(CCCCN)C(=O)O; Lauroyl = CCCCCCCCCCCC(=O)*; αMeS = C[C@](N)(CO)C(=O)O; AEEA = NCCOCCOCC(=O)O; Aib = CC(C)(N)C(=O)O

What was measured:
HSA [1] = target: T1, HSA (Homo sapiens, UniProt P02768); test: ITC titration of polysorbate into HSA in the absence and presence of MEDI7219; assay type: binding; settings: for ΔG / ΔH / –TΔS / Kd: 30 °C; for Kd: [HSA] = 0.15 mM, read-out: dissociation constant; for αii (K A/B/K A): ratio of association constants with/without MEDI7219
T1 construct: purchased Sigma-Aldrich UK; host or cells: human serum
Description: Lyophilized protein powders were rehydrated by adding buffer to the protein to achieve a concentration of 10 mg/mL, then stored at 5 °C for 72 h or until fully dissolved. Polysorbate concentrations chosen were 0.1× and 1× the critical micelle concentration (CMC) of each respective polysorbate. Due to the dilution of injection by the ITC, polysorbate formulations were formulated at 10 times the desired concentration. ITC experiments were performed using a Microcal PEAQ-ITC instrument from Malvern Panalytical. Prior to each experiment, the sample cell and syringe were cleaned using 20% Contrad 70 detergent, rinsed with ultrapure water, and dried using methanol. Titration experiments were conducted at 30 °C to ensure that the experimental temperature was above laboratory ambient temperature. As the Microcal PEAQ-ITC lacks a cooling unit, it was necessary to conduct experiments at a temperature that could be maintained consistently. The reference cell was filled with ultrapure water for all experiments. The 200 μL sample cell was filled with protein solution, and the 40 μL injection syringe was filled with polysorbate solution and equilibrated at 5 °C below the experimental temperature. […] Experiments comprised 14 injections of 2.5 μL at an injection speed of 0.5 μL/s. The time between injections was set long enough to allow the heat signals to return to the baseline before the next injection. The solution in the reaction cell was continuously stirred at a speed of 500 rpm. Experiments requiring the titration of peptide or surfactant into protein–surfactant or protein–peptide required the continuation of one experiment into the next, to maintain precise concentration ratios between experimental pathways. As a result, once an experiment had concluded, excess solution was withdrawn and the next titration was conducted into the resulting solution. A reference experiment of polysorbate injected into buffer solution was conducted under identical conditions and subtracted from each run that contained polysorbate in the injection syringe. […] Data were analyzed using MicroCal PEAQ-ITC Analysis Software v1.41. The binding model was analyzed using the one set of binding sites software preset, resulting in the values of changes in the Gibbs free energy (ΔG), enthalpy (ΔH), and entropy in relation to temperature (−TΔS). Each experiment was repeated a minimum of three times to assess the reproducibility.

HSA [2] = target: T1, HSA; test: ITC titration of MEDI7219 into HSA in the absence and presence of polysorbate; assay type: binding; settings: for Kd: read-out: dissociation constant; for αi (K B/A/K B): ratio of association constants with/without polysorbate
Description: Lyophilized protein powders were rehydrated by adding buffer to the protein to achieve a concentration of 10 mg/mL, then stored at 5 °C for 72 h or until fully dissolved. Polysorbate concentrations chosen were 0.1× and 1× the critical micelle concentration (CMC) of each respective polysorbate. Due to the dilution of injection by the ITC, polysorbate formulations were formulated at 10 times the desired concentration. ITC experiments were performed using a Microcal PEAQ-ITC instrument from Malvern Panalytical. Prior to each experiment, the sample cell and syringe were cleaned using 20% Contrad 70 detergent, rinsed with ultrapure water, and dried using methanol. Titration experiments were conducted at 30 °C to ensure that the experimental temperature was above laboratory ambient temperature. As the Microcal PEAQ-ITC lacks a cooling unit, it was necessary to conduct experiments at a temperature that could be maintained consistently. The reference cell was filled with ultrapure water for all experiments. The 200 μL sample cell was filled with protein solution, and the 40 μL injection syringe was filled with polysorbate solution and equilibrated at 5 °C below the experimental temperature. The reference power was set to 41.86 μJ/s (10 μcal/s). Experiments comprised 14 injections of 2.5 μL at an injection speed of 0.5 μL/s. The time between injections was set long enough to allow the heat signals to return to the baseline before the next injection. The solution in the reaction cell was continuously stirred at a speed of 500 rpm. Experiments requiring the titration of peptide or surfactant into protein–surfactant or protein–peptide required the continuation of one experiment into the next, to maintain precise concentration ratios between experimental pathways. As a result, once an experiment had concluded, excess solution was withdrawn and the next titration was conducted into the resulting solution. A reference experiment of polysorbate injected into buffer solution was conducted under identical conditions and subtracted from each run that contained polysorbate in the injection syringe. For experiments that contained MEDI7219 in the injection syringe, a control experiment could not be subtracted in the same manner as the polysorbate experiments. This was suspected to be a consequence of limitations in the software and the interactions generating small binding heats, leading to a noisier thermogram. However, a fitted offset was used instead, which reduced noise and allowed a smooth heat integration. Data were analyzed using MicroCal PEAQ-ITC Analysis Software v1.41. The binding model was analyzed using the one set of binding sites software preset, resulting in the values of changes in the Gibbs free energy (ΔG), enthalpy (ΔH), and entropy in relation to temperature (−TΔS). Each experiment was repeated a minimum of three times to assess the reproducibility.

HSA [3] = target: T1, HSA; test: DSC thermal stability of HSA with MEDI7219 and polysorbates; assay type: physicochemical; settings: DSC of 10 mg/mL HSA, no polysorbate, MEDI7219 10 mg/mL where ligand
Description: Lyophilized protein and MEDI7219 were rehydrated by adding buffer to achieve a concentration of 30 mg/mL, then stored at 5 °C for 72 h or until fully dissolved. Polysorbate solutions were prepared at 3 times higher than the desired concentration to account for dilution in the formulation after mixing with MEDI7219. Polysorbate concentrations in experiments were 0.1× and 1× each polysorbates respective CMC. Samples were produced by adding equal volumes of each component to provide the desired formulation. DSC experiments were conducted using a Microcal PEAQ-DSC instrument from Malvern Panalytical. Prior to each experiment, DSC cells were washed with 2% Decon 90 detergent and then rinsed with ultrapure water. The DSC capillary cell volume was 250 μL for both reference and sample cells; for each experiment, the reference cell contained buffer solution. […] A reference scan of the buffer solution was conducted under identical conditions and subtracted from each run. Data were analyzed using MicroCal PEAQ-DSC Analysis Software v1.64.

HSA [4] = target: T1, HSA; design: method as in not given; settings: native GLP-1, reported value; ref not given; cited from earlier work
[5] = polysorbate (1 × CMC) → HSA + MEDI7219
[6] = polysorbate (1 × CMC) → HSA + MEDI7219, [MEDI7219] = 2.5 mM
[7] = polysorbate (1 × CMC) → HSA, MEDI7219 absent
[8] = MEDI7219 → HSA + RG T20 (1 × CMC), 30 °C
[9] = MEDI7219 → HSA + RG T80 (1 × CMC), 30 °C
[10] = MEDI7219 → HSA + SR T20 (1 × CMC), 30 °C
[11] = MEDI7219 → HSA + SR T80 (1 × CMC), 30 °C
[12] = MEDI7219 → HSA, no polysorbate, 30 °C

Molecule: Polyoxyethylene (20) sorbitan monolaurate [RG T20]
ΔG (HSA [1]; [5]): –15.40 (±0.77) kJ mol^–1
ΔH (HSA [1]; [5]): –9.07 (±9.4 × 10^–7) kJ mol^–1
–TΔS (HSA [1]; [5]): –6.36 (±0.26) kJ mol^–1
Kd (HSA [1]; [6]): 2210 µM
αii (K A/B/K A) (HSA [1]; [5]): 0.47
ΔG (HSA [1]; [7]): –17.30 (±0.87) kJ mol^–1
ΔH (HSA [1]; [7]): –83.70 (±36.7) kJ mol^–1
–TΔS (HSA [1]; [7]): 66.40 (±2.74) kJ mol^–1
Kd (HSA [1]; [7]): 1030 µM

ΔG (HSA [2]; [8]): –21.8 (±0.87) kJ mol^–1
–TΔS (HSA [2]; [8]): –15.3 (±1.28) kJ mol^–1
Kd (HSA [2]; [8]): 176 µM
ΔH (HSA [2]; [9]): 25.3 (±0.70) kJ mol^–1
–TΔS (HSA [2]; [9]): –52.1 (±4.34) kJ mol^–1
Kd (HSA [2]; [9]): 24 µM
αi (K B/A/K B) (HSA [2]; MEDI7219 → HSA + RG T80 (1 × CMC)): 1.68
ΔH (HSA [2]; [10]): 27.8 (±9.32) kJ mol^–1
–TΔS (HSA [2]; [10]): –52.5 (±4.35) kJ mol^–1
Kd (HSA [2]; [10]): 55.6 µM
ΔH (HSA [2]; [11]): 25.4 (±1.03) kJ mol^–1
–TΔS (HSA [2]; [11]): –51.3 (±6.16) kJ mol^–1
Kd (HSA [2]; [11]): 35.1 µM
αi (K B/A/K B) (HSA [2]; MEDI7219 → HSA + SR T80 (1 × CMC)): 1.30
ΔH (HSA [2]; [12]): 35.4 (±8.19) kJ mol^–1
–TΔS (HSA [2]; [12]): –60.9 (±7.70) kJ mol^–1
Kd (HSA [2]; MEDI7219 → HSA, no polysorbate, 30 °C, [HSA] = 0.15 mM, [MEDI7219] = 2.5 mM, average across all experiments): 40.3 µM
association constant (HSA [2]; MEDI7219 → HSA, no polysorbate, 30 °C, example titration): 2.4 × 10^4 M^–1
decrease of dissociation constant of MEDI7219 (HSA [2]; in the presence of RG T80 versus its absence): 2 fold
Tm 2 (HSA [3]): 74 °C and 74.0 (±0.1) °C
total area (HSA [3]; 20–105 °C at 60 °C/h): 806.3 (±5.8) kJ/mol
Molecule: CCCCCCCCCCCC(=O)N[C@@H](CCC(=O)NCCOCCOCC(=O)NCCOCCOCC(=O)NCCCC[C@H](NC(=O)[C@H](C)NC(=O)[C@@H](NC(=O)[C@](C)(Cc1ccccc1)NC(=O)[C@H](CCC(=O)O)NC(=O)[C@](C)(CCCCN)NC(=O)[C@H](C)NC(=O)[C@H](C)NC(=O)[C@H](CCC(=O)O)NC(=O)CNC(=O)[C@H](CCC(=O)O)NC(=O)[C@H](CC(C)C)NC(=O)[C@H](CCCCNC(=O)COCCOCCNC(=O)COCCOCCNC(=O)CC[C@H](NC(=O)CCCCCCCCCCC)C(=O)O)NC(=O)[C@H](CO)NC(=O)[C@](C)(CO)NC(=O)[C@@H](NC(=O)[C@H](CC(=O)O)NC(=O)[C@H](CO)NC(=O)[C@@H](NC(=O)[C@](C)(Cc1ccccc1)NC(=O)[C@H](CO)NC(=O)CNC(=O)[C@H](CCC(=O)O)NC(=O)C(C)(C)NC(=O)[C@@H](N)Cc1c[nH]cn1)[C@@H](C)O)C(C)C)[C@@H](C)CC)C(=O)N[C@H](C(=O)N[C@H](C(=O)N[C@@H](CCC(=O)O)C(=O)NCC(=O)NCC(N)=O)C(C)C)C(C)C)C(=O)O [MEDI7219] (H-H[Aib]EGS[αMeF]TSDV[αMeS]SK([AEEA-AEEA-γGlu-Lauroyl])LEGEAA[αMeK]E[αMeF]IAK([AEEA-AEEA-γGlu-Lauroyl])VVEGG-NH2; N-terminus and C-terminus assumed)

Molecule: native GLP-1: native glucagon-like peptide-1, literature comparison
association constant (HSA [4]): 2.3 × 10^8 M^–1

ΔG (HSA [1]; [5]): –16.00 (±0.80) kJ mol^–1
ΔH (HSA [1]; [5]): –8.75 (±4.46) kJ mol^–1
–TΔS (HSA [1]; [5]): –7.25 (±0.23) kJ mol^–1
Kd (HSA [1]; [6]): 1760 µM
αii (K A/B/K A) (HSA [1]; [5]): 0.57
ΔG (HSA [1]; [7]): –17.40 (±0.87) kJ mol^–1
ΔH (HSA [1]; [7]): –9.13 (±1.29) kJ mol^–1
–TΔS (HSA [1]; [7]): –8.26 (±0.34) kJ mol^–1
Kd (HSA [1]; [7]): 1010 µM
Molecule: polyoxyethylene (20) sorbitan monooleate [RG T80]

ΔG (HSA [1]; [5]): –16.80 (±0.84) kJ mol^–1
ΔH (HSA [1]; [5]): –8.72 (±2.7 × 10^–5) kJ mol^–1
–TΔS (HSA [1]; [5]): –8.09 (±0.33) kJ mol^–1
Kd (HSA [1]; [6]): 1280 µM
αii (K A/B/K A) (HSA [1]; [5]): 0.40
ΔG (HSA [1]; [7]): –19.10 (±0.10) kJ mol^–1
ΔH (HSA [1]; [7]): –30.10 (±2.02) kJ mol^–1
–TΔS (HSA [1]; [7]): 11.00 (±0.45) kJ mol^–1
Kd (HSA [1]; [7]): 513 µM
Molecule: polyoxyethylene (20) sorbitan monooleate [SR T80]

Molecule: Polyoxyethylene (20) sorbitan monolaurate [SR T20]
ΔG (HSA [1]; [5]): –16.10 (±0.81) kJ mol^–1
ΔH (HSA [1]; [5]): –4.19 (±0.62) kJ mol^–1
–TΔS (HSA [1]; [5]): –11.90 (±0.50) kJ mol^–1
Kd (HSA [1]; [6]): 1690 µM
αii (K A/B/K A) (HSA [1]; [5]): 0.43
ΔG (HSA [1]; [7]): –18.20 (±0.91) kJ mol^–1
ΔH (HSA [1]; [7]): –43.10 (±6.15) kJ mol^–1
–TΔS (HSA [1]; [7]): 24.90 (±1.03) kJ mol^–1
Kd (HSA [1]; [7]): 721 µM
